Data on six substances can be found in patent US20080138284A1, “Novel Peptides That Promote Lipid Efflux” (Lipid Sciences, Inc., priority 2006, published 2008).

Ends that are not written are not given here.

Assay [1] has as its system HeLa cells transfected with only a hygromycin-resistant control plasmid (control cells). The assay can be described thus: Cholesterol and phospholipid efflux from control HeLa cells (incl. time course). The class given is cell-based, human. As to conditions: for cholesterol efflux from control cells, time course: rate compared with ABCA1 cells. As to the method:
HeLa cells stably transfected with human ABCA1 cDNA (ABCA1 cells) and HeLa cells transfected with only a hygromycin-resistant control plasmid (control cells) are produced and grown in α-modified Eagle's medium (aMEM) plus 10% fetal calf serum, as described by Remaley et al. (Biochem. Biophys. Res. Commun. 280:818-823, 2001). Cholesterol and phospholipid efflux is performed for 18 hours on noncholesterol-loaded cells radiolabeled with either cholesterol or choline (Remaley et al., Arterioscler. Thromb. Vasc. Biol. 17:1813-1821, 1997). Percentage efflux is calculated after subtracting the radioactive counts in the blank media (aMEM plus 1 mg/ml of BSA), and expressed as the percent of total radioactive counts removed from the cells during the efflux period.
ABCA1 cells are used to assess the ability of apoA-I and synthetic peptides to efflux lipid from cells. […] The peptides of the present invention efflux approximately 2- to 4-fold more cholesterol and phospholipid from ABCA1 cells than from control cells. Both the peptides of the present invention and apoA-I began to show saturation for lipid efflux at approximately the same protein concentration of 10 μg/ml.
Cholesterol efflux from ABCA1 cells to apoA-I is first detectable after 2 hours and increases throughout the 30 hour efflux period. […] Overall, the kinetics for cholesterol efflux to peptides of the present invention from ABCA1 cells is similar to that of apoA-I, except that cholesterol efflux is first detectable after 30 minutes.

For assay [2], the system named is apoE knockout mice on a chow diet and LDL receptor knockout mice on a western high fat diet. The experiment in a line: Aortic arch atherosclerosis in knockout mice. The class given is in vivo, mouse. As to conditions: 2 mg/kg to 50 mg/kg iv or ip, 2 to 3 times per week, approximately 6 weeks. As to the method:
The ability of the peptides of the present invention and associated fragments are tested in apoE knockout mice on a chow diet and LDL receptor knockout mice on a western high fat diet to determine the effect of these peptides to reduce atherosclerosis in a mouse model system. One or more of the peptides of the present invention, in a range of concentration of 2 mg/kg to 50 mg/kg, is injected intravenously (iv) or intraperitoneally (ip) 2 to 3 times per week over a period of approximately 6 weeks. Aortic atherosclerosis is quantitated in the aortic arch before administration of the peptides and after the 6 week period of administration. (Wu et al., J. Biol. Chem.; 2004: 279, 22913-22925).

For assay [3], the system named is J774 mouse macrophage cells (ABCA1). The experiment in a line: ABCA1 mediated cholesterol efflux. The class given is cell-based. As to conditions: peptide samples run at 30 μg/ml. From the text:
The methods employed in this study have been described in U.S. Pat. Nos. 7,029,863, 7,060,452, U.S. Patent Application Publication No. 2005/0191715, and in Moya et al., Arteriosclerosis & Thrombosis 1994:14:1056-1065 and Liu et al., J. Biol. Chem., 2003:278(44), 42976-42984. SR-B1 mediated cholesterol efflux is examined in FU5AH rat hepatoma cells and ABCA1 mediated cholesterol efflux is examined in J774 mouse macrophage cells as described in these references.

Turning to “LESAKVSALSALEEATKKAKPVLLESFKVSFLSALEEYTKK [SEQ ID NO:89]”, in assay [1], the “removal of cholesterol and phospholipids from control cells relative to Apo A-I” value (shortened to “removal … from control cells relative to Apo A-I”) is listed as “comparable to or more than that removed by Apo A-I”; the “cholesterol efflux from control cells, time course” value (“cholesterol efflux” below) is on record as “promote cholesterol efflux from control cells but at a lower rate”. In addition, the “atherosclerosis in the aortic arch” value in assay [2] was “reduce atherosclerosis in the aortic arch”. The “efflux of cholesterol from J774 macrophage cells (ABCA1 pathway)” value (from here on “efflux of cholesterol”) in assay [3] is “stimulate efflux of cholesterol”.
On the same counts, the results for “Ac-Leu Glu Ser Ala Lys Val Ser Ala Leu Ser Ala Leu Glu Glu Ala Thr Lys Lys Ala Lys Pro Val Leu Leu Glu Ser Phe Lys Val Ser Phe Leu Ser Ala Leu Glu Glu Tyr Thr Lys Lys-NH2 (Ac-LESAKVSALSALEEATKKAKPVLLESFKVSFLSALEEYTKK-NH2) [SEQ ID NO:372]” are “comparable to or more than that removed by Apo A-I”, “promote cholesterol efflux from control cells but at a lower rate”, “reduce atherosclerosis in the aortic arch” and “stimulate efflux of cholesterol”.
On the same counts, the results for “Ac-Ser Asp Glu Leu Arg Gln Arg Leu Ala Ala Arg Leu Glu Ala Leu Lys Glu Asn Ala Lys Pro Val Leu Leu Glu Ser Phe Lys Val Ser Phe Leu Ser Ala Leu Glu Glu Tyr Thr Lys Lys-NH2 (Ac-SDELRQRLAARLEALKENAKPVLLESFKVSFLSALEEYTKK-NH2) [SEQ ID NO:355]” are “comparable to or more than that removed by Apo A-I”, “promote cholesterol efflux from control cells but at a lower rate”, “reduce atherosclerosis in the aortic arch” and “stimulate efflux of cholesterol”.
On the same counts, the results for “SDELRQRLAARLEALKENAKPVLLESFKVSFLSALEEYTKK [SEQ ID NO:80]” are “comparable to or more than that removed by Apo A-I”, “promote cholesterol efflux from control cells but at a lower rate”, “reduce atherosclerosis in the aortic arch” and “stimulate efflux of cholesterol”.
Consider “GEEMRDRARAHVDALRTHAKPVLLESFKVSFLSALEEYTKK [SEQ ID NO:72]”, for which, in assay [1], the “removal … from control cells relative to Apo A-I” value was “comparable to or more than that removed by Apo A-I”; the “cholesterol efflux” value is “promote cholesterol efflux from control cells but at a lower rate”. Besides, in assay [2], the “atherosclerosis in the aortic arch” value is reported as “reduce atherosclerosis in the aortic arch”. Further, the “efflux of cholesterol” value in assay [3] is “stimulate efflux of cholesterol”.
Consider “Ac-Gly Glu Glu Met Arg Asp Arg Ala Arg Ala His Val Asp Ala Leu Arg Thr His Ala Lys Pro Val Leu Leu Glu Ser Phe Lys Val Ser Phe Leu Ser Ala Leu Glu Glu Tyr Thr Lys Lys-NH2 (Ac-GEEMRDRARAHVDALRTHAKPVLLESFKVSFLSALEEYTKK-NH2) [SEQ ID NO:354]”, for which, in assay [1], the “removal … from control cells relative to Apo A-I” value is reported as “comparable to or more than that removed by Apo A-I”; the “cholesterol efflux” value is on record as “promote cholesterol efflux from control cells but at a lower rate”. In addition, in assay [2], the “atherosclerosis in the aortic arch” value is given as “reduce atherosclerosis in the aortic arch”. The “efflux of cholesterol” value in assay [3] is reported as “stimulate efflux of cholesterol”.
